Measured values: patent publication US20250382273A1 (INSTITUT NATIONAL DE LA SANTE ET DE LA RECHERCHE MEDICALE, priority 2022, published 2025)
Like-named read-outs stand apart in the source and are kept apart here.

Legend:
[1] = system: M. tuberculosis H37Rv_gfp; format: cell-based, Mycobacterium tuberculosis
[2] = system: M. tuberculosis H37Rv_gfp; format: cell-based, Mycobacterium tuberculosis; conditions: in combination with delamanid 4 ng·mL−1, 5 days at 37° C.
[3] = in combination with pretomanid 20 ng·mL−1, 5 days at 37° C., […], read-out: EC50 H37Rv_gfp
[4] = in combination with pretomanid, unit inferred, read-out: average EC50 H37Rv_gfp

| SMILES | EC50 [1, 3] | other results |
| --- | --- | --- |
| Cc1ccc2nc(NC(=O)[C@@H]3C4C=CC(C4)[C@@H]3C(=O)O)sc2c1 (mixture of isomers) [Example 1, 3-[(6-methyl-1,3-benzothiazol-2-yl)carbamoyl]bicyclo[2.2.1]hept-5-ene-2-carboxylic acid] | 1 to 5 µM | EC50 [2]: 0.31 µM |
| Cc1ccc2nc(N3C(=O)[C@@H]4[C@H](C3=O)[C@@H]3C=C[C@H]4C3)sc2c1 [Example 2, (1R,2S,6R,7S)-4-(6-methyl-1,3-benzothiazol-2-yl)-4-azatricyclo[5.2.1.02,6]dec-8-ene-3,5-dione] | < 1 µM | EC50 [2]: 0.42 µM |
| O=C(Nc1nc2ccc(Oc3ccccc3)cc2s1)[C@@H]1C2C=CC(C2)[C@@H]1C(=O)O (stereo partly drawn) [Example 18, [2-hydroxy-1,1-bis(hydroxymethyl)ethyl]ammonium: (1R,2S,3R,4S)-3-[(6-phenoxy-1,3-benzothiazol-2-yl)carbamoyl]bicyclo[2.2.1]hept-5-ene-2-carboxylate] | < 1 µM | EC50 [2]: 0.16 µM |
| O=C(Nc1nc2ccc(Oc3cc(C(F)(F)F)ccn3)cc2s1)[C@@H]1C2C=CC(C2)[C@@H]1C(=O)O (stereo partly shown) [Example 27, 3-[[6-[[4-(trifluoromethyl)-2-pyridyl]oxy]-1,3-benzothiazol-2-yl]carbamoyl]bicyclo[2.2.1]hept-5-ene-2-carboxylic acid] | < 1 µM | EC50 [1, 4]: 0.11 µM; EC50 [2]: 0.15 µM |
| O=C(Nc1nc2ccc(C#Cc3ccccc3)cc2s1)[C@@H]1C2C=CC(C2)[C@@H]1C(=O)O (stereo partly shown) [Example 77, 3-[[6-(2-phenylethynyl)-1,3-benzothiazol-2-yl]carbamoyl]bicyclo[2.2.1]hept-5-ene-2-carboxylic acid] | < 1 µM |  |
| CC(C)(C)C#Cc1ccc2nc(NC(=O)[C@@H]3C4C=CC(C4)[C@@H]3C(=O)O)sc2c1 (stereo partly shown) [Example 78, 3-[[6-(3,3-dimethylbut-1-ynyl)-1,3-benzothiazol-2-yl]carbamoyl]bicyclo [2.2.1]hept-5-ene-2-carboxylic acid] | < 1 µM | EC50 [1, 4]: 0.13 µM |
| O=C(Nc1nc2ccc(C#CC3CC3)cc2s1)[C@@H]1C2C=CC(C2)[C@@H]1C(=O)O (stereo partly shown) [Example 79, 3-[[6-(2-cyclopropylethynyl)-1,3-benzothiazol-2-yl]carbamoyl]bicyclo[2.2.1]hept-5-ene-2-carboxylic acid] | < 1 µM |  |
| O=C(Nc1nc2ccc(-c3cncnc3)cc2s1)[C@@H]1C2C=CC(C2)[C@@H]1C(=O)O (stereo partly shown) [Example 80, 3-[(6-pyrimidin-5-yl-1,3-benzothiazol-2-yl)carbamoyl]bicyclo[2.2.1]hept-5-ene-2-carboxylic acid] | 10 to 20 µM |  |
| O=C(Nc1nc2ccc(-c3ccc4ncccc4c3)cc2s1)[C@@H]1C2C=CC(C2)[C@@H]1C(=O)O (stereo partly shown) [Example 81, 3-[[6-(6-quinolyl)-1,3-benzothiazol-2-yl]carbamoyl]bicyclo[2.2.1]hept-5-ene-2-carboxylic acid] | 1 to 5 µM |  |
| Cc1ccnc(Nc2ccc3nc(NC(=O)[C@@H]4C5C=CC(C5)[C@@H]4C(=O)O)sc3c2)c1 (stereo partly shown) [Example 84, 3-[[6-[(4-methyl-2-pyridyl)amino]-1,3-benzothiazol-2-yl]carbamoyl]bicyclo[2.2.1]hept-5-ene-2-carboxylic acid] | 1 to 5 µM |  |
| O=C(Nc1nc2ccc(Nc3cc(F)ccn3)cc2s1)[C@@H]1C2C=CC(C2)[C@@H]1C(=O)O (stereo partly shown) [Example 85, 3-[[6-[(4-fluoro-2-pyridyl)amino]-1,3-benzothiazol-2-yl]carbamoyl]bicyclo[2.2.1]hept-5-ene-2-carboxylic acid] | < 1 µM |  |
| O=C(Nc1nc2ccc(Nc3ccc(F)cn3)cc2s1)[C@@H]1C2C=CC(C2)[C@@H]1C(=O)O (stereo partly shown) [Example 86, 3-[[6-[(5-fluoro-2-pyridyl)amino]-1,3-benzothiazol-2-yl]carbamoyl]bicyclo[2.2.1]hept-5-ene-2-carboxylic acid] | < 1 µM |  |
| O=C1[C@@H]2C3C=CC(C3)[C@@H]2C(=O)N1c1nc2ccc(Nc3ccc(F)cn3)cc2s1 [Example 87, 4-[6-[(5-fluoro-2-pyridyl)amino]-1,3-benzothiazol-2-yl]-4-azatricyclo[5.2.1.02,6]dec-8-ene-3,5-dione] | < 1 µM |  |
| O=C(Nc1nc2ccc(Nc3cccc(F)n3)cc2s1)[C@@H]1C2C=CC(C2)[C@@H]1C(=O)O (stereo partly shown) [Example 88, 3-[[6-[(6-fluoro-2-pyridyl)amino]-1,3-benzothiazol-2-yl]carbamoyl]bicyclo[2.2.1]hept-5-ene-2-carboxylic acid] | < 1 µM |  |
| O=C1[C@@H]2C3C=CC(C3)[C@@H]2C(=O)N1c1nc2ccc(Nc3cccc(F)n3)cc2s1 [Example 89, 4-[6-[(6-fluoro-2-pyridyl)amino]-1,3-benzothiazol-2-yl]-4-azatricyclo[5.2.1.02,6]dec-8-ene-3,5-dione] | 1 to 5 µM |  |
| O=C1[C@@H]2C3C=CC(C3)[C@@H]2C(=O)N1c1nc2ccc(Nc3ccnc(C(F)(F)F)c3)cc2s1 [Example 90, 4-[6-[[2-(trifluoromethyl)-4-pyridyl]amino]-1,3-benzothiazol-2-yl]-4-azatricyclo[5.2.1.02,6]dec-8-ene-3,5-dione] | < 1 µM |  |
| O=C(Nc1nc2ccc(Nc3cncc(C(F)(F)F)c3)cc2s1)[C@@H]1C2C=CC(C2)[C@@H]1C(=O)O (stereo partly shown) [Example 91, 3-[[6-[[5-(trifluoromethyl)-3-pyridyl]amino]-1,3-benzothiazol-2-yl]carbamoyl]bicyclo[2.2.1]hept-5-ene-2-carboxylic acid] | 1 to 5 µM |  |
| COc1cc(Nc2ccc3nc(N4C(=O)[C@@H]5C6C=CC(C6)[C@@H]5C4=O)sc3c2)ccn1 [Example 92, 4-[6-[(2-methoxy-4-pyridyl)amino]-1,3-benzothiazol-2-yl]-4-azatricyclo[5.2.1.02,6]dec-8-ene-3,5-dione] | 1 to 5 µM |  |
| O=C(Nc1nc2ccc(Nc3ccc(OC(F)(F)F)cn3)cc2s1)[C@@H]1C2C=CC(C2)[C@@H]1C(=O)O (stereo partly shown) [Example 93, 3-[[6-[[5-(trifluoromethoxy)-2-pyridyl]amino]-1,3-benzothiazol-2-yl]carbamoyl]bicyclo[2.2.1]hept-5-ene-2-carboxylic acid] | < 1 µM |  |
| O=C1[C@@H]2C3C=CC(C3)[C@@H]2C(=O)N1c1nc2ccc(Nc3ccc(C(F)(F)F)cn3)cc2s1 [Example 95] | < 1 µM |  |
| O=C(Nc1nc2ccc(Nc3ccc(C(F)(F)F)cn3)cc2s1)[C@@H]1C2C=CC(C2)[C@@H]1C(=O)O (stereo partly shown) [Example 96, 3-[[6-[[5-(trifluoromethyl)-2-pyridyl]amino]-1,3-benzothiazol-2-yl]carbamoyl]bicyclo[2.2.1]hept-5-ene-2-carboxylic acid] | 1 to 5 µM |  |
| O=C1[C@@H]2C3C=CC(C3)[C@@H]2C(=O)N1c1nc2ccc(Nc3cccc(C(F)(F)F)n3)cc2s1 [Example 97, 4-[6-[[6-(trifluoromethyl)-2-pyridyl]amino]-1,3-benzothiazol-2-yl]-4-azatricyclo[5.2.1.02,6]dec-8-ene-3,5-dione] | < 1 µM |  |
| O=C1[C@@H]2C3C=CC(C3)[C@@H]2C(=O)N1c1nc2ccc(Nc3ccnc(F)c3)cc2s1 [Example 98, 4-[6-[(2-fluoro-4-pyridyl)amino]-1,3-benzothiazol-2-yl]-4-azatricyclo[5.2.1.02,6]dec-8-ene-3,5-dione] |  | EC50 ([1]; read-out: EC50 H37Rv_gfp): 5 to 10 µM |
| O=C(Nc1nc2ccc(Nc3ccnc(F)c3)cc2s1)[C@@H]1C2C=CC(C2)[C@@H]1C(=O)O (stereo partly shown) [Example 99, 3-[[6-[(2-fluoro-4-pyridyl)amino]-1,3-benzothiazol-2-yl]carbamoyl]bicyclo[2.2.1]hept-5-ene-2-carboxylic acid] | 5 to 10 µM |  |
| O=C(Nc1nc2ccc(-c3ccc(N4CCCCC4)cc3)cc2s1)[C@@H]1C2C=CC(C2)[C@@H]1C(=O)O (stereo partly shown) [Example 100] | < 1 µM |  |
